Test results reported in article PMC6189639 (Biochemistry, 2018).

Columns and labels:
Assay in all cases: X-ray crystal structure of complex, […] A
Assay type in all cases: binding
[1] = biological target: tmMBP1 (Thermotoga maritima, UniProt Q9X0T1); conditions: co-crystal, 0.1 M sodium citrate; substrate site S1-S4
[2] = biological target: tmMBP2 (Thermotoga maritima, UniProt Q9S5Y1); conditions: co-crystal, bis-tris pH 5.5; substrate site S1-S4
[3] = biological target: tmMBP3 (Thermotoga maritima, UniProt G4FGN8); conditions: co-crystal, 0.4 M sodium thiocyanate; substrate site S1-S2

Row | X-ray crystal structure of complex, 1.50 A; SAXS [1] | X-ray crystal structure of complex, 1.50 A; SAXS [2] | X-ray crystal structure of complex, 2.15 A; SAXS [3] | Compound
1 | tmMBP1-maltotetraose complex (6DTU) | tmMBP2-maltotetraose complex (6DTS) |  | OC[C@H]1O[C@H](O[C@H]2[C@H](O)[C@@H](O)[C@@H](O[C@H]3[C@H](O)[C@@H](O)[C@@H](O[C@H]4[C@H](O)[C@@H](O)C(O)O[C@@H]4CO)O[C@@H]3CO)O[C@@H]2CO)[C@H](O)[C@@H](O)[C@@H]1O (stereo partly drawn) [maltotetraose]
2 |  |  | tmMBP3-maltose complex (6DTQ) | OC[C@H]1O[C@H](O[C@H]2[C@H](O)[C@@H](O)C(O)O[C@@H]2CO)[C@H](O)[C@@H](O)[C@@H]1O (stereo partly drawn) [maltose]
